According to patent US20220249661A1, “Pharmaceutical composition for preventing or treating inflammatory bowel disease comprising Tumor necrosis factor alpha inhibitor and Prostaglandin E2” (SAMSUNG LIFE PUBLIC WELFARE FOUNDATION, priority 2021, published 2022):

Assays:
Format in all cases: cell-based, human
[1] = system: normal person-derived intestinal organoids; assay: Organoid reconstitution assay, normal person-derived organoids
Method: (§1) In order to evaluate the organoid-forming ability of intestinal crypts obtained from normal persons and patients with Crohn's disease, 100 intestinal crypts per 25 μL of Matrigel were dispensed into maintenance medium. The culture medium was changed once every two days. The number of viable organoids and enteroids per well was counted under a microscope (CK40, Olympus). The organoid-forming efficiency was calculated as the ratio of available organoids per 100 intestinal crypts. The organoid reconstitution rate was calculated by counting the number of organoids on day 4 and the number of organoids on day 10. Statistical analysis was performed by ANOVA using Bonferroni's multiple comparison test (* p<0.05, ** p<0.01 and *** p<0.001).
(§2) Normal person-derived organoids were cultured in a maintenance medium for 2 days to obtain a stable number of organoids, and then the medium was replaced with a differentiation medium every 2 days. For each experimental group, human recombinant TNFα and PGE2 (Cayman Chemical Company) or infliximab were added to the culture medium every day. The organoid reconstitution rate was calculated by comparing the number of organoids on day 4 and the number of organoids on day 10.

[2] = system: Crohn's disease patient-derived intestinal organoids; assay: MTT assay (cell viability), Crohn's disease patient-derived organoids
Method: (§3) To evaluate the cell viability of organoids, 100 μL of basal medium containing MTT (3-[4,5-dimethylthiazol-2-yl]-2,5-diphenyltetrazolium bromide) (Sigma-Aldrich) at a concentration of 500 μg/ml was added to each well of a culture plate and incubated for 2 hours at 37° C. To remove the medium and dissolve the Matrigel, 10 μL of 21 SDS (sodium dodecyl sulfate) solution was added thereto, followed by incubation for 2 hours. After adding 100 μL of detergent reagent, the organoids were further incubated for 1 hour, and the absorbance was measured at 562 nm for quantification. Statistical analysis was performed by ANOVA using Bonferroni's multiple comparison test (* p<0.05, ** p<0.01 and *** p<0.001).
(§4) To evaluate cell viability, MTT assay was performed in the same manner as in Experimental Example 2. Statistical analysis was performed by ANOVA using Bonferroni's multiple comparison test (* p<0.05, ** p<0.01 and *** p<0.001).
(§5) FIGS. 20 and 21 show the results of analyzing the changes in organoid reconstitution rate and cell viability of TNFα-treated Crohn's disease patient-derived organoids by infliximab and PGE2. Cases in need of actual infliximab treatment or potential PGE2 treatment are Crohn's disease patients, and based on the information obtained from the normal person-derived organoids, the effects of infliximab and PGE2 on Crohn's disease patient-derived organoids with reduced intestinal epithelial regeneration ability were evaluated.

[3] = system: LGR5; assay: FACS analysis for LGR5 in Crohn's disease patient-derived organoids; conditions: 30 ng/mL TNFα + high concentration (infliximab 10 μg/mL or PGE2 10 nM)
Method: (§6) For the Crohn's disease patient-derived organoids of each experimental group, 30 ng/mL of human recombinant TNFα, or 10 nM of PGE2, and 1 or 10 μg/mL of infliximab were added to the culture medium daily.
To prepare single-cell suspensions from organoids, organoids were incubated with TrypLE Express in a water bath at 37° C. for 30 minutes. Then, the cells were washed with basal medium and collected by filtration through a 40-μm cell strainer. Flow cytometry for detecting the marker was performed using 1×10^5 cells. Cells were incubated with human Lgr5/GPR49 antibody (R&D Systems) in FACS buffer for 30 min. Unbound antibodies were washed out, and the cells were incubated with Alexa Fluor 488-conjugated anti-mouse immunoglobulin G secondary antibody (Thermo Fisher) for 30 minutes. The cells were then washed, resuspended in FACS buffer, and analyzed on the FACS Aria III instrument (BD Biosciences) to evaluate LGR5+ ISCs population.

[4] = system: Crohn's disease patient-derived organoids; assay: Wound healing assay, two-dimensional Crohn's disease patient-derived organoid monolayers
Method: (§7) For matrix coating, each well of the 24-well plate was coated at 37° C. for 1 hour with 500 μL of Matrigel diluted at a concentration of 51 in the basal medium. For two-dimensional culture, organoids in the three-dimensional culture were digested into single cells using TrypLE Express (Thermo Fisher). The digested cells were resuspended in the basal medium and seeded into Matrigel-coated wells.
(§8) For wound healing assay, 5×10^4 cells were seeded in wells of a 24-well plate containing inserts of CytoSelect™ 24-Well Wound Healing Assay. The two-dimensional organoid monolayers were cultured in maintenance medium until confluence was reached. The inserts were then carefully removed to produce 0.9-mm-diameter wounds, and 500 μL of fresh differentiation medium was added to each well. Then, the cells in the wound were monitored using a phase-contrast microscope at 0, 4, 8, 16, and 24 hours. At each time point, the area of the non-healed wound was measured in 3 different regions. Statistical analysis was performed by ANOVA using Bonferroni's multiple comparison test (* p<0.05, ** p<0.01 and *** p<0.001).
In addition, wound healing assay was performed in the same manner as in Experimental Example 7.
as §6, with “daily. Statistical analysis was performed by ANOVA using Bonferroni's multiple comparison test (** p<0.01 and *** p<0.001).” for “daily.”

[5] = system: normal person-derived intestinal organoids; assay: MTT assay (cell viability), normal person-derived organoids
Method: as §3, §4

[6] = system: Crohn's disease patient-derived intestinal organoids; assay: Organoid reconstitution assay, Crohn's disease patient-derived organoids
Method: as §1, §2, §5

[7] = system: LGR5; assay: qPCR for LGR5 in Crohn's disease patient-derived organoids; conditions: TNFα 0, 30 or 100 ng/mL + high concentration (infliximab 10 μg/mL or PGE2 10 nM)
Method: For the Crohn's disease patient-derived organoids of each experimental group, 0, 30 or 100 ng/mL of human recombinant TNFα, 0, 5 or 10 nM of PGE2, and 0, 1 or 10 μg/mL of infliximab were added to the culture medium daily.
Total RNA was extracted from intestinal organoids using the RNeasy Mini Kit (QIAGEN). One-step qPCR was performed using the following primers together with One Step PrimeScript™ III RT-qPCR Mix (Takara): LGR5 primers (forward: 5′-[…]-3′, reverse: 5′-[…]-3′). Statistical analysis was performed by ANOVA using Bonferroni's multiple comparison test (* p<0.05 and *** p<0.001).

[8] = system: normal person-derived organoids; assay: Wound healing assay, two-dimensional normal person-derived organoid monolayers; conditions: TNFα-treated; 0-24 hours
Method: as §7, §8

[9] = system: normal person-derived organoids; assay: EdU assay (cell proliferation), normal person-derived organoids; conditions: 30 ng/mL TNFα vs TNFα-untreated
Method: (§9) To evaluate the cell proliferation of organoids, each organoid was incubated for 2 hours in a medium containing 10 μM of EdU (5-ethynyl-2′-deoxyuridine) (Abcam), and then fixed with cold 41 paraformaldehyde (Biosesang). EDU incorporation in DNA was detected using Click-iT™ EdU Alexa Fluor® 488 imaging kit (Thermo Fisher). The number of EDU positive (+) cells in the organoids was counted using a confocal microscope (LSM 800, Carl Zeiss). Statistical analysis was performed by ANOVA using Bonferroni's multiple comparison test (* p<0.05 and *** p<0.001).

[10] = system: LGR5; assay: Immunohistochemistry, LGR5+ cells per organoid, normal person-derived organoids; conditions: TNFα-treated vs TNFα-untreated
Method: (§10) After removing the culture medium, the organoids were washed with PBS and fixed in cold 4% paraformaldehyde at room temperature for 30 minutes. The fixed organoids were washed with PBS and embedded in HistoGel (Thermo Fisher). HistoGel blocks were used for paraffin embedding and sectioned for histologic examination and IHC. Histologic evaluation was performed using hematoxylin-eosin-stained sections. After heating-induced epitope retrieval with citrate buffer, IHC was performed using the following antibodies: cleaved caspase-3 (Asp175, 1:200 dilution, Cell Signaling), E-cadherin (1:100 dilution, Abcam), and LGR5 (1:400 dilution, Abcam). The number of LGR5+ cells per organoid in each of the TNFα-treated group (n=10) and the TNFα-untreated group (n=10) was counted, and statistical analysis was performed by ANOVA using Bonferroni's multiple comparison test (*** p<0.001).

[11] = system: Crohn's disease patient-derived organoids; assay: Double immunofluorescence for CC3 and TUNEL, Crohn's disease patient-derived organoids; conditions: 30 ng/mL TNFα; vs normal person-derived organoids
Method: (§11) Cell death by TNFα occurs through apoptosis or necroptosis. CC3 (cleaved caspase-3) is a marker capable of detecting cells in which apoptosis has occurred, and TUNEL staining can detect DNA fragmented due to apoptosis, and thus detect cells in which apoptosis or necroptosis has occurred. Therefore, CC3+ and TUNEL+ cells are cells in which apoptosis has occurred, and CC3− and […] cells are cells in which necroptosis has occurred.
(§12) CC3 staining was performed using primary rabbit antibodies specific for CC3 and a goat anti-rabbit secondary antibody conjugated to Alexa 594 fluorochrome (red fluorescence). In TUNEL staining, In Situ Cell Death Detection Kit (Merck) was used for the same sections in CC3 staining, and then fluorescein-labeled dUTP (green fluorescence) was used. DAPI was used to stain intracellular DNA. Statistical analysis was performed by ANOVA using Bonferroni's multiple comparison test (*** p<0.001).

[12] = system: LGR5; assay: Immunohistochemistry, LGR5+ cells per organoid, Crohn's disease patient-derived organoids; conditions: TNFα-treated; vs normal person-derived organoids
Method: as §10

[13] = system: normal person-derived organoids; assay: Double immunofluorescence for CC3 and TUNEL, normal person-derived organoids; conditions: 30 ng/mL TNFα vs TNFα-untreated
Method: as §11, §12

[14] = system: Crohn's disease patient-derived organoids; assay: EdU assay (cell proliferation), Crohn's disease patient-derived organoids; conditions: 30 ng/mL TNFα; vs normal person-derived organoids
Method: as §9

[15] = TNFα 30 and 100 ng/mL + high concentration (infliximab 10 μg/mL or PGE2 10 nM)
[16] = 30 or 100 ng/mL TNFα + high concentration (infliximab 10 μg/mL, PGE2 10 nM)
[17] = 30 ng/mL TNFα + high concentration (infliximab 10 μg/mL or PGE2 10 nM), after 16 hours
[18] = 0, 30 and 100 ng/mL TNFα, dependence on concentration
[19] = 30 ng/mL TNFα vs TNFα-untreated
[20] = 30 or 100 ng/mL human recombinant TNFα

Compound: CCCCC[C@H](O)/C=C/[C@H]1[C@H](O)CC(=O)[C@@H]1C/C=C\CCCC(=O)O [PGE2, prostaglandin E2]
- organoid reconstitution rate ([1]; 100 ng/mL TNFα + 10 nM PGE2): significantly improved compared to when the organoids were not treated with PGE2
- organoid reconstitution rate [1, 15]: the restoration of the organoid reconstitution rates was improved
- cell viability (MTT) [2, 16]: levels similar to those of TNFα-untreated normal person-derived organoids
- LGR5 expression (FACS, LGR5+ ISCs population) [3]: increased
- unhealed wound area [4, 17]: reduced, compared to when the organoids were treated with TNFα alone
- cell viability (MTT) ([5]; 100 ng/mL TNFα + 10 nM PGE2): significantly improved compared to when the organoids were not treated with PGE2
- organoid reconstitution rate [6, 16]: levels similar to those of TNFα-untreated normal person-derived organoids
- LGR5 expression (qPCR) [7]: increased

Compound: TNFα
- unhealed wound area [8]: the wound area was recovered after 16 hours
- organoid reconstitution rate [1, 18]: decreased
- organoid reconstitution rate ([1]; 30 ng/mL TNFα vs not treated, differentiation medium 10 days, jejunum and ileum): decreased
- number of EdU+ cells [9]: TNFα-untreated organoids increased compared to that in TNFα-treated organoids
- cell viability (MTT) [2, 19]: decreased in both the jejunum and the ileum
- apoptosis [2, 20]: increased in a concentration-dependent manner
- number of LGR5+ cells per organoid [10]: increased
- number of CC3−, TUNEL+ and CC3+, TUNEL+ cells (cell death) [11]: necroptosis more actively occurred than that in the normal person-derived organoids
- number of LGR5+ cells per organoid [12]: decreased in the Crohn's disease patient-derived organoids compared to the normal person-derived organoids
- unhealed wound area ([4]; TNFα alone, 0-24 hours): no significant decrease in the unhealed wound area even over time
- cell viability (MTT) [5, 18]: also decreased
- cell viability (MTT) [5, 19]: decreased in both the jejunum and the ileum
- organoid reconstitution rate ([6]; 30 ng/mL TNFα, differentiation medium 10 days, jejunum and ileum): decreased compared to those of the normal person-derived organoids
- organoid reconstitution rate [6, 20]: decreased in a concentration-dependent manner
- number of CC3−, TUNEL+ and CC3+, TUNEL+ cells (cell death) [13]: increased
- number of EdU+ cells [14]: decreased compared to that of the normal person-derived organoids

Compound: infliximab
- organoid reconstitution rate [1, 15]: the restoration of the organoid reconstitution rates was improved
- cell viability (MTT) [2, 16]: levels similar to those of TNFα-untreated normal person-derived organoids
- LGR5 expression (FACS, LGR5+ ISCs population) [3]: no difference in LGR5 expression from when the organoids were treated with TNFα
- unhealed wound area [4, 17]: reduced, compared to when the organoids were treated with TNFα alone
- organoid reconstitution rate [6, 16]: levels similar to those of TNFα-untreated normal person-derived organoids
- organoid reconstitution rate ([6]; TNFα + low concentration infliximab (1 μg/mL) alone): did not completely restore
- LGR5 expression (qPCR) [7]: no difference in LGR5 expression depending on the concentration of TNFα
